Here are results for seven compounds from patent publication US6784175B2, “Use of substituted 1-amino-5-phenylpentane-3-ol and/or 1-amino-6-phenylhexane-3-ol compounds as medicaments” (Gruenenthal GmbH, priority 2000, dated 2004).

Molecules are shown by their SMILES. pKi: −log10 of the molar value.

The subject of data set [1] is (+)-MK801 binding site of the ionotropic NMDA receptor. The data set is described as follows: (3H)-(+)-MK801 receptor bonding test on rat cerebral membrane homogenates. The conditions noted are these: 1 nmol/l (3H)-(+)-MK801, rat brain membrane homogenate; for Percentage inhibition of (3H)-(+)-MK801 binding at 10 μM: 10 μmol/l compound, triple determinations; for pKi: calculated from IC50 by Cheng-Prusoff equation. How it is done:
Research to determine the NMDA antagonistic effect of each compound in general formula I was carried out on cerebral membrane homogenates (homogenate of rat brain without cerebellum, pons and medulla oblongata taken from male Wistar rats (Charles River, Sulzfeld, Germany)).
For this purpose, after separating the cerebellum, pons and medulla oblongata, freshly prepared rat brains were macerated in 50 mmol/l of tris/HCl (pH 7.7) with a Polytron homogeniser (model PT3000, Kinematika AG, Littau, Switzerland) at 6000 revolutions per minute (rpm) for 1 minute with ice cooling and centrifuged for 15 minutes at 4° C. and 60,000 g. After decanting and discarding the supernatant, again placing in 50 mmol/l of tris/HCl (pH 7.7) and macerating the membrane pellet with a homogeniser at 2000 rpm for 1 minute, it was centrifuged again for 15 minutes at 4° C. and 60,000 g. The supernatant was again discarding and the membrane pellet homogenised (2000 rpm for 1 minute) in 50 mmol/l of tris/HCl (pH 7.7) and frozen in aliquots at −70° C.
For the receptor bonding test, each aliquot was defrosted and then centrifuged for 15 minutes at 4° C. and 60,000 g. After decanting and discarding the supernatant, the membrane pellet was taken up with bonding test buffer and homogenised (2000 rpm for 1 minute). The bonding test buffer was 5 mmol/l tris/HCl (pH 7.7) supplemented with 30 μmol/l of glycine and 100 μmol/l of glutamic acid.
1 nmol/l of (^3H)-(+)-MK801 ((5R, 10S)-(+)-5-methyl-10,11-dihydro-5H-dibenzo(a,d)cycloheptane-5,10-imine was used as a radioactively marked ligand (NET-972, NEN, Cologne Germany). The proportion of unspecific bonding was determined in the presence of 10 μmol/l of non-radioactively marked (+)-MK801 (RBI/Sigma, Deisenhofen, Germany). In further batches, each of the compounds of general formula I were added in series of concentrations and the displacement of the radioactive ligand out of its specific bond to the NMDA receptor determined. All the batches were subjected to triple determinations. The batches were each incubated for 40 minutes at 25° C. in a water bath and then harvested for determination of the radioactive ligand bound to the cerebral membrane homogenate by means of filtration through glass-fibre filters (GF/B) (Whatman GF/B, Hassel, Munich, Germany). The radioactivity retained by the glass-fibre filter discs was measured in a β counter (Packard TRI-CARB Liquid Scintillation Analyser 2000CA, Packard Instrument, Meriden, Conn. 06450, USA) after adding a scintillator (“Ready Protein” scintillator, Beckmann Coulter GmhH, Krefeld, Germany).
The percentage inhibition of the specific bonding of the ligand (^3H)-(+)-MK801 in the presence of 10 μmol/l of each compound of general formula I resulting from the triple batches is used as a measure of the affinity of the compound for the (+)-MK801 binding site of the ionotropic NMDA receptor. From batches with concentration series of these compounds of general formula I, the IC50 values (concentration of substituted compounds with 50% displacement of radioactive ligand out of its specific bond) were calculated in accordance with the law of mass action using non-linear regression. From these IC50 values, the Kj values were calculated in accordance with the Cheng-Prusoff equation (Y. Cheng, W. H. Prusoff, 1973, Biochem. Pharmacol., 22, pp 3099-3108).

As a reminder, the pKi is −log10 of the Ki, conventionally taken in molar units. One may read the melting point as the temperature of the solid-liquid transition. Consider `CN(C)C(c1ccccc1Cl)C1CCCCC1(O)CCc1cccc(F)c1.Cl` (stereo not drawn) [Example 11, 2-[(2-chlorophenyl)dimethylaminomethyl]-1-[2-(3-fluorophenyl)ethyl]cyclohexanol, hydrochloride], for which the melting point is 120 to 126 °C. Moreover, in data set [1], the “Percentage inhibition of (3H)-(+)-MK801 binding at 10 μM” value (“Percentage inhibition” for short) stood at 93% and the negative-log Ki (pKi) is 5.68.
The like results for `CN(C)C(c1ccccc1)C1CCCCC1(O)CCc1ccccc1Cl.Cl` (stereo not drawn) [Example 12, 1-[2-(2-chlorophenyl)ethyl]-2-(dimethylaminophenylmethyl)cyclohexanol, hydrochloride] were, in that order, 152 °C, 85% and 5.82.
The like results for `CN(C)C(c1ccccc1)C1CCCCC1(O)CCc1cccc(Cl)c1.Cl` (stereo not drawn) [Example 13, 1-[2-(3-chlorophenyl)ethyl]-2-(dimethylaminophenylmethyl)cyclohexanol, hydrochloride] were, in that order, 95 °C, 61% and 5.51.
The matching figures for `Cl.OC1(CCc2ccccc2)CCCCC1C(c1ccccc1)N1CCCCC1` (stereo not drawn) [Example 14, 1-phenethyl-2-(phenylpiperidine-1-yl-methyl)cyclohexanol, hydrochloride]: 127 °C, 88% and 5.55.
Turning to `Cc1ccccc1C(C1CCCCC1(O)CCc1ccccc1Cl)N(C)C.Cl` (stereo not drawn) [Example 15, 1-[2-(2-chlorophenyl)ethyl]-2-(dimethylamino-o-tolylmethyl)cyclohexanol, hydrochloride], the melting point was 190 to 194 °C. Further, the “Percentage inhibition” value in data set [1] came out at 100%. For the same compound, the pKi in data set [1] (hydrochloride) is 6.15.
In turn, `CN(C)C(c1ccccc1F)C1CCCCC1(O)CCc1ccccc1Cl.Cl` (stereo not drawn) [Example 19, 1-[2-(2-chlorophenyl)ethyl]-2-(dimethylamino-(2-fluorophenyl)methyl]cyclohexanol, hydrochloride] displayed a melting point of 213 °C. Besides, in data set [1], the “Percentage inhibition” value is on record as 102% and the pKi was 6.10.
Consider `Cc1ccccc1C(C1CCCCC1(O)CCc1ccccc1Cl)N1CCCC1.Cl` (stereo not drawn) [Example 23, 1-[2-(2-chlorophenyl)ethyl]-2-(pyrrolidine-1-yl-o-tolylmethyl)cyclohexanol, hydrochloride], for which the melting point amounted to 155 °C. For the same compound, in data set [1], the “Percentage inhibition” value worked out at 101% and the pKi was 6.40.
